From ChEMBL document CHEMBL5614386, “Design, synthesis, and biological evaluation of novel 1-amido-2-one-4-thio-deoxypyranose as potential antitumor agents for multiple myeloma” (Bioorg Med Chem, 2024)
Active and inactive are the calls of the source. The calls are words filed in the database; no cut-off is given here.

Key:
NCI-H929 [1] = assay: Anti-proliferative activity against human NCI-H929 cells assessed as inhibition cell growth at 5 uM incubated for 72 hrs by CCK-8 assay; format: functional, cell-based
ARP-1 [2] = assay: Anti-proliferative activity against human ARP-1 cells assessed as inhibition cell growth at 5 uM incubated for 72 hrs by CCK-8 assay; format: functional, cell-based
[3] = Anti-proliferative activity against human ARP-1cells assessed as cell growth inhibition incubated for 72 hrs by CCK-8 assay; settings: ARP-1, 72 h
NCI-H929 [4] = assay: Anti-proliferative activity against human NCI-H929 cells assessed as cell growth inhibition incubated for 72 hrs by CCK-8 assay; settings: NCI-H929, 72 h
[5] = Anti-proliferative activity against human ARP-1 cells assessed as inhibition cell growth at 5 uM incubated for 72 hrs by CCK-8 assay relative to control; format: functional; design: scale not given: the % may be the effect or the level left
NCI-H929 [6] = assay: Anti-proliferative activity against human NCI-H929 cells assessed as inhibition cell growth at 5 uM incubated for 72 hrs by CCK-8 assay relative to control; format: functional; design: scale not given: the % may be the effect or the level left
ARP-1 [7] = assay: Anti-proliferative activity against human ARP-1 cells assessed as inhibition cell growth incubated for 72 hrs by CCK-8 assay; format: functional, cell-based
NCI-H929 [8] = assay: Anti-proliferative activity against human NCI-H929 cells assessed as inhibition cell growth incubated for 72 hrs by CCK-8 assay; format: functional, cell-based
NCI-H929 [9] = assay: Antitumor activity against human NCI-H929 cells xenografted in BALB/C nude mouse model assessed as reduction in tumor growth at 50 mg/kg, sc administrated every other day for 13 days; format: functional, organism-based; settings: time 13.0 day
[10] = Toxicity in BALB/c mouse xenografted with human NCI-H929 cells assessed as effect on body weight at 50 mg/kg, sc administrated every other day for 13 days; format: organism-based; settings: in vivo, 312 h, time 13 day

SMILES	Activity (NCI-H929 [1])	Activity (ARP-1 [2])	Activity [5] [%]	Activity (NCI-H929 [6]) [%]	other results
CC(=O)OC[C@H]1O[C@@H](NC(=O)c2ccccc2)C(=O)CC1SCc1ccc(F)cc1 (stereo partly drawn)	Active	Active			
COc1ccc(C(=O)N[C@@H]2O[C@H](COC(C)=O)C(Sc3ccc(C)cc3)CC2=O)cc1 (stereo partly drawn)	Active	Active			IC50 [3]: 4.57 µM; IC50 (NCI-H929 [4]): 1.6 µM
CC(=O)OC[C@H]1O[C@@H](NC(=O)c2ccc3c(c2)OCO3)C(=O)CC1SCc1ccc(C(C)(C)C)cc1 (stereo partly drawn)	Active	Active			
COc1ccc(CSC2CC(=O)[C@H](NC(=O)c3ccc4c(c3)OCO4)O[C@@H]2COC(C)=O)cc1 (stereo partly drawn)	Active	Active			
CC(=O)OC[C@H]1O[C@@H](NC(=O)c2ccccc2)C(=O)CC1SCCc1cnccn1 (stereo partly drawn)	Active	Active			
COc1ccc(SC2CC(O)[C@H](NC(=O)c3ccc(OC)cc3)O[C@@H]2COC(C)=O)cc1 (stereo partly drawn)			<20	<20	
CC(=O)OC[C@H]1O[C@@H](NC(=O)c2ccccc2)C(=O)CC1Sc1ccc(Br)cc1 (stereo partly drawn)	Active	Active			
CC(=O)OC[C@H]1O[C@@H](NC(=O)c2ccc3c(c2)OCO3)C(=O)CC1SCCc1cnccn1 (stereo partly drawn)	Active	Active			
CC(=O)OC[C@H]1O[C@@H](NC(=O)c2ccccc2)C(O)CC1Sc1ccc(C)cc1 (stereo partly drawn)			<20	<20	
COc1ccc(SC2CC(O)[C@H](NC(=O)c3ccccc3)O[C@@H]2COC(C)=O)cc1 (stereo partly drawn)			<20	<20	
CC(=O)OC[C@H]1O[C@@H](NC(=O)c2ccc3c(c2)OCO3)C(O)CC1SCc1ccc(Cl)cc1 (stereo partly drawn)			<20	<20	
CC(=O)OC[C@H]1O[C@@H](NC(=O)c2ccc3c(c2)OCO3)C(=O)CC1Sc1ccc(C)cc1 (stereo partly drawn)	Active	Active			IC50 [3]: 1.56 µM; IC50 (NCI-H929 [4]): 0.85 µM
COc1ccc(SC2CC(=O)[C@H](NC(=O)c3ccco3)O[C@@H]2COC(C)=O)cc1 (stereo partly drawn)	Active	Active			
CC(=O)OC[C@H]1O[C@@H](NC(=O)c2ccc3c(c2)OCO3)C(=O)CC1SCc1ccc(Cl)cc1 (stereo partly drawn)	Active	Active			
CC(=O)OC[C@H]1O[C@@H](NC(=O)c2ccccc2)C(=O)CC1Sc1ccc(C)cc1 (stereo partly drawn)	Active	Active			
COc1ccc(CSC2CC(O)[C@H](NC(=O)c3ccccc3)O[C@@H]2COC(C)=O)cc1 (stereo partly drawn)			<20	<20	
CC(=O)OC[C@H]1O[C@@H](NC(=O)c2ccc3c(c2)OCO3)C(O)CC1SCc1ccc(F)cc1 (stereo partly drawn)			<20	<20	
COC1CC(=O)[C@H](NC(=O)c2ccc3c(c2)OCO3)O[C@@H]1COC(C)=O (stereo partly drawn)	inactive	inactive			
CC(=O)OC[C@H]1O[C@@H](NC(=O)c2ccc3c(c2)OCO3)C(O)CC1Sc1cc(C)cc(C)c1 (stereo partly drawn)			<20	<20	
CC(=O)OC[C@H]1O[C@@H](NC(=O)c2ccccc2)C(=O)CC1SCc1ccc(C(C)(C)C)cc1 (stereo partly drawn)	Active	Active			
COc1ccc(SC2CC(=O)[C@H](NC(=O)c3ccc(OC)cc3)O[C@@H]2COC(C)=O)cc1 (stereo partly drawn)	Active	Active			IC50 [3]: 1.41 µM; IC50 (NCI-H929 [4]): 1.2 µM
CC(=O)OC[C@H]1O[C@@H](NC(=O)c2ccccc2)C(O)CC1Sc1ccc(F)cc1 (stereo partly drawn)			<20	<20	
CNc1ccc(SC2CC(=O)[C@H](NC(=O)c3ccc4c(c3)OCO4)O[C@@H]2COC(C)=O)cc1 (stereo partly drawn)	Active	Active			
CC(=O)OC[C@H]1O[C@@H](NC(=O)c2ccc3c(c2)OCO3)C(=O)CC1SCc1ccc(F)cc1 (stereo partly drawn)	Active	Active			
COc1ccc(SC2CC(=O)[C@H](NC(=O)c3ccccc3)O[C@@H]2COC(C)=O)cc1 (stereo partly drawn)	Active	Active			
COc1ccc(CSC2CC(=O)[C@H](NC(=O)c3ccccc3)O[C@@H]2COC(C)=O)cc1 (stereo partly drawn)	Active	Active			
CC(=O)OC[C@H]1O[C@@H](NC(=O)c2ccccc2)C(O)CC1Sc1ccc(Cl)cc1 (stereo partly drawn)			<20	<20	

SMILES	Activity (NCI-H929 [1])	Activity (ARP-1 [2])	Activity [5] [%]	Activity (NCI-H929 [6]) [%]	other results
CC(=O)OC[C@H]1O[C@@H](NC(=O)c2ccc3c(c2)OCO3)C(O)CC1Sc1ccc(C)cc1 (stereo partly drawn)			<20	<20	
CC(=O)OC[C@H]1O[C@@H](NC(=O)c2ccccc2)C(=O)CC1SCCCCCCO (stereo partly drawn)	Active	Active			
CC(=O)OC[C@H]1O[C@@H](NC(=O)c2ccc3c(c2)OCO3)C(=O)CC1Sc1cc(C)cc(C)c1 (stereo partly drawn)	Active	Active			IC50 [3]: 2.29 µM; IC50 (NCI-H929 [4]): 1.97 µM
COc1ccc(SC2CC(O)[C@H](NC(=O)c3ccc4c(c3)OCO4)O[C@@H]2CO)cc1 (stereo partly drawn)					Activity (ARP-1 [7]): Active; Activity (NCI-H929 [8]): Active
COc1ccccc1SC1CC(=O)[C@H](NC(=O)c2ccc3c(c2)OCO3)O[C@@H]1COC(C)=O (stereo partly drawn)	inactive	inactive			
CC(=O)OC[C@H]1O[C@@H](NC(=O)c2ccccc2)C(=O)CC1SCc1ccco1 (stereo partly drawn)	Active	Active			
CC(=O)OC[C@H]1O[C@@H](NC(=O)c2ccc3c(c2)OCO3)C(O)CC1SCc1ccco1 (stereo partly drawn)			<20	<20	
CC(=O)OC[C@H]1O[C@@H](NC(=O)c2ccc3c(c2)OCO3)C(=O)CC1SCCCCCCO (stereo partly drawn)	Active	Active			
Cc1ccc(SC2CC(O)[C@H](NC(=O)c3ccc4c(c3)OCO4)O[C@@H]2CO)cc1 (stereo partly drawn)					Activity (ARP-1 [7]): Active; Activity (NCI-H929 [8]): Active
COc1ccc(SC2CC(O)[C@H](NC(=O)c3ccc4c(c3)OCO4)O[C@@H]2CO)cc1OC (stereo partly drawn)					Activity (ARP-1 [7]): Active; Activity (NCI-H929 [8]): Active
CC(=O)OC[C@H]1O[C@@H](NC(=O)c2ccccc2)C(=O)CC1SCCNC(=O)OC(C)(C)C (stereo partly drawn)	Active	Active			
COc1ccc(SC2CC(O)[C@H](NC(=O)c3ccc4c(c3)OCO4)O[C@@H]2COC(C)=O)cc1OC (stereo partly drawn)			<20	<20	
CNc1ccc(SC2CC(O)[C@H](NC(=O)c3ccc4c(c3)OCO4)O[C@@H]2COC(C)=O)cc1 (stereo partly drawn)			<20	<20	
COc1ccc(SC2CC(=O)[C@H](NC(=O)c3ccccc3)O[C@@H]2COC(C)=O)cc1OC (stereo partly drawn)	Active	Active			
CC(=O)OC[C@H]1O[C@@H](NC(=O)c2ccccc2)C(=O)CC1SCc1ccc(Cl)cc1 (stereo partly drawn)	Active	Active			
CC(=O)OC[C@H]1O[C@@H](NC(=O)c2ccc3c(c2)OCO3)C(=O)CC1SC1CCCC1 (stereo partly drawn)	inactive	inactive			
CC(=O)OC[C@H]1O[C@@H](NC(=O)c2ccccc2)C(=O)CC1Sc1ccc(Cl)cc1 (stereo partly drawn)	Active	Active			IC50 [3]: 1.04 µM; IC50 (NCI-H929 [4]): 2.68 µM
COc1ccc(SC2CC(=O)[C@H](NC(=O)c3ccc4c(c3)OCO4)O[C@@H]2COC(C)=O)cc1 (stereo partly drawn)	Active	Active			IC50 [3]: 1.38 µM; IC50 (NCI-H929 [4]): 1.46 µM
O=C1C2C3C=CC(C4CC34)C2C(=O)N1c1ccc(Cc2ccncc2)cc1 (stereo not drawn)	Active				IC50 [3]: 5.45 µM; IC50 (NCI-H929 [4]): 6.88 µM; Activity (NCI-H929 [9]): Active; Activity [10]: Non-Toxic
CC(=O)OC[C@H]1O[C@@H](NC(=O)c2ccc3c(c2)OCO3)C(=O)CC1SCc1ccco1 (stereo partly drawn)	Active	Active			IC50 [3]: 2.71 µM; IC50 (NCI-H929 [4]): 3.03 µM
CC(=O)OC[C@H]1O[C@@H](NC(=O)c2ccccc2)C(=O)CC1Sc1ccc(F)cc1 (stereo partly drawn)	Active	Active			
CC(=O)OC[C@H]1O[C@@H](NC(=O)c2ccc3c(c2)OCO3)C(=O)CC1SCCNC(=O)OC(C)(C)C (stereo partly drawn)	Active	Active			
CC(=O)OC[C@H]1O[C@@H](NC(=O)c2ccccc2)C(O)CC1SCc1ccc(F)cc1 (stereo partly drawn)			<20	<20	
COc1ccccc1SC1CC(=O)[C@H](NC(=O)c2ccccc2)O[C@@H]1COC(C)=O (stereo partly drawn)	Active	Active			
CC(=O)OC[C@H]1O[C@@H](NC(=O)c2ccccc2)C(O)CC1Sc1ccc(Br)cc1 (stereo partly drawn)			<20	<20	
COc1ccc(SC2CC(O)[C@H](NC(=O)c3ccc4c(c3)OCO4)O[C@@H]2COC(C)=O)cc1 (stereo partly drawn)			<20	<20	
